Test results taken from US20150133666A1, “TRITOQUALINE FOR USE IN THE TREATMENT OF CYSTIC FIBROSIS” (priority 2012, published 2015).

What was measured:
[1] = system: cystic fibrosis patients; details: background statement; cited from earlier work
[2] = biological target: T1, histamine H4 receptor (Homo sapiens, UniProt Q9H3N8); assay: Inhibition of proliferation of CFU rich in H4 receptor (FIG. 4); assay type: cell-based; details: for activity on CFU proliferation when using an anti H4: FIG. 4, with an anti H4
T1 construct: endogenous in cells; host or cells: CFU (colony-forming units) rich in H4 receptor

[3] = system: cystic fibrosis patient; assay: FEV1 (Forced Expiratory Volume in 1 second) in patients with cystic fibrosis treated with tritoqualine; assay type: in vivo, human
Method: During the initial consultation, a treatment based on tritoqualine was started at a daily dose of 200 mg.
Before therapy with tritoqualine, the FEV1 (Forced Expiratory Volume in 1 second) of this young patient was 0.39 L/s or 55.71% of the normal expected value (based on age, sex, and size). The flow rate was measured with a Jaeger® MasterScreen® Body plethysmography apparatus.
(§1) This level of ventilatory flow signals a severe respiratory impairment. This patient also had 15 lung infections per year prior to treatment. After 6 months of treatment with tritoqualine at a dose of 200 mg/day, the ventilatory flows were again measured. At this second visit, the FEV1 parameter was measured at 0.50 L/s. […] During the third visit, months after the first visit, the flows were again measured.
Before therapy with tritoqualine, the FEV1 of the patient was measured at 0.45 L/s or only 69.23% of the normal expected value (based on age, sex, and size).
(§2) This patient had had 8 lung infections per year prior to treatment. After 6 months of treatment at the daily dose of 400 mg of tritoqualine, the FEV1 parameter was measured again during a second consultation. The FEV1 parameter measured during this consultation went from 0.45 L/s to 0.50 L/s, or an improvement of 11.11% of the ventilatory flows.
A child with cystic fibrosis was treated during their first consultation with a dose of 300 mg of tritoqualine.
(§3) Before therapy with tritoqualine, the FEV1 of the patient was measured at 0.70 L/s, or 63.64% of the normal expected value (based on age, sex, and size). This patient had had 12 pulmonary infections per year before the treatment. After a 6-month treatment with a daily dose of 300 mg of tritoqualine, the FEV1 parameter was measured at their second consultation at 1.0 L/s. This represents an improvement of 42.86% over the initial visit. (100*([…])/0.70). After 12 months of treatment, the FEV1 parameter measured during the third consultation was 1.20 L/s or 71.43% improvement compared to the initial visit. (100*(1.20-0.70)/0.70).

[4] = white powder; degrades into cotarnine and phthalic acid; cited from earlier work
[5] = biological target: T2, histidine decarboxylase (Homo sapiens, UniProt P19113); details: background statement; cited from earlier work
T2 sequence (P19113 1-662): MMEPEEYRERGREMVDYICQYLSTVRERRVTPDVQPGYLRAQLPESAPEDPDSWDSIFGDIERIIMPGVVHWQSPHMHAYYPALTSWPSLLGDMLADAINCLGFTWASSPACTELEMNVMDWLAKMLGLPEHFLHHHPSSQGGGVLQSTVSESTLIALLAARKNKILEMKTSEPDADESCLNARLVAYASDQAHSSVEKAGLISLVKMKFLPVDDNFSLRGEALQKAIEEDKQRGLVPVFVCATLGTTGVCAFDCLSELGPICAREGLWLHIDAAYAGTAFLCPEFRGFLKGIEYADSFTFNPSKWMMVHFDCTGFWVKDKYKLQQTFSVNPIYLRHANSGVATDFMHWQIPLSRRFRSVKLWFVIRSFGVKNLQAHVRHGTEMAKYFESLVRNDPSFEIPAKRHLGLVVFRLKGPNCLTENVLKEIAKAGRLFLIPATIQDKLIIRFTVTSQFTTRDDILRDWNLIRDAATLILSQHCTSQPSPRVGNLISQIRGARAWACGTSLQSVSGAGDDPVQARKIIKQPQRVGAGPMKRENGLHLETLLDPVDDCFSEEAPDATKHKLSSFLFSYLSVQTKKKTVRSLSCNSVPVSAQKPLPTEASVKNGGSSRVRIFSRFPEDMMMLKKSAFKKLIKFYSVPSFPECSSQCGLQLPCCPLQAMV

[6] = system: cystic fibrosis patient; assay: Number of lung infections (superinfections) per year in patients with cystic fibrosis treated with tritoqualine; assay type: in vivo, human
Method: as §1
Over 12 months, the number of superinfections decreased from 15 to only 4 infections.
as §2
During the 12-month treatment with tritoqualine (400 mg daily), the patient benefited from a significant reduction in pulmonary infections, from 8 initially to only 3 infections after 12 months of treatment.
as §3
These decreased from 12 to 3 infections in one single year.

T1 sequence (Q9H3N8 whole entry, species assumed): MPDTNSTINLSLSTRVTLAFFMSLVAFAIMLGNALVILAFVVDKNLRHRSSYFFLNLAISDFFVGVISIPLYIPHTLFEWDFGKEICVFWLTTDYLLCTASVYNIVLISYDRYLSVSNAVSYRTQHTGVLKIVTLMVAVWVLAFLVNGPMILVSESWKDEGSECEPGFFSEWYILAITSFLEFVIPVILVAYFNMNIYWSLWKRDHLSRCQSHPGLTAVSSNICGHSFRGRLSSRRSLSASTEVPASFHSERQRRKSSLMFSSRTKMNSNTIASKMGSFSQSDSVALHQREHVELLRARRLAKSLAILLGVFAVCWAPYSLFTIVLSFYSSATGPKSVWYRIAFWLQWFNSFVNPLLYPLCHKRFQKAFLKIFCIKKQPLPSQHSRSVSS

SMILES: CC(C)(C)c1cc(C(C)(C)C)c(NC(=O)c2c[nH]c3ccccc3c2=O)cc1O [Kalydeco]
- improvement in FEV1 [1]: 10%

SMILES: CCOc1c(N)c2c(c(OCC)c1OCC)C(C1c3c(cc4c(c3OC)OCO4)CCN1C)OC2=O (centres unmarked) [tritoqualine, 7-Amino-4,5,6-triethoxy-3-(5,6,7,8-tetrahydro-4-methoxy-6-methyl-1,3-dioxolo[4,5-g]isoquinolin-5-yl) phthalide]
- proliferation of CFU rich in H4 receptor ([2]; FIG. 4): capable of inhibiting the proliferation
- activity on CFU proliferation when using an anti H4 [2]: greatly reduced
- increase of FEV1 compared to initial flows ([3]; Example 1: child, 200 mg/day, after 6 months): 28.2%
- FEV1 ([3]; Example 1: child, 200 mg/day, after 6 months (second visit), before therapy 0.39 L/s): 0.50 L/s
- improvement of FEV1 compared to initial rates ([3]; Example 1: child, 200 mg/day, third visit): 58.7%
- FEV1 ([3]; Example 1: child, 200 mg/day, third visit, before therapy 0.39 L/s): 0.62 L/s
- increase of ventilatory flows ([3]; Example 1: summary statement): more than 50%
- improvement of ventilatory flows (FEV1) ([3]; Example 2: adult, 400 mg/day, after 6 months vs baseline): 11.11%
- FEV1 ([3]; Example 2: adult, 400 mg/day, after 6 months, before therapy 0.45 L/s): 0.50 L/s
- increase in FEV1 compared to the initial visit ([3]; Example 2: adult, 400 mg/day, after 12 months): 28.89%
- FEV1 ([3]; Example 2: adult, 400 mg/day, after 12 months, before therapy 0.45 L/s): 0.58 L/s
- improvement of FEV1 over the initial visit ([3]; Example 3: child, 300 mg/day, after 6 months): 42.86%
- FEV1 ([3]; Example 3: child, 300 mg/day, after 6 months, before therapy 0.70 L/s): 1.0 L/s
- improvement of FEV1 compared to the initial visit ([3]; Example 3: child, 300 mg/day, after 12 months): 71.43%
- FEV1 ([3]; Example 3: child, 300 mg/day, after 12 months, before therapy 0.70 L/s): 1.20 L/s
- sensitivity to light [4]: very sensitive to light
- inhibitory action on histidine decarboxylase [5]: very low
- number of superinfections ([6]; Example 1: child, 200 mg/day, over 12 months, 15 per year prior to treatment): 4 infections
- reduction factor of number of infections ([6]; Example 1: summary statement): divided by three
- number of pulmonary infections ([6]; Example 2: adult, 400 mg/day, after 12 months, 8 initially): 3 infections
- number of pulmonary infections ([6]; Example 3: child, 300 mg/day, in one year, 12 before treatment): 3 infections

SMILES: NC(=NCc1ccc(Cl)cc1)SCCCc1cnc[nH]1 [Clobenpropit]
- activity on CFU proliferation when using an anti H4 [2]: greatly reduced
